The numbers were not newly measured in patent US20170333571A1, “Targeted Delivery Platform for Delivery of Therapeutics” (The Regents of the University of California, priority 2014, published 2017), which cites them from elsewhere.

The test system of the data set is colitis-induced inflammation. Particulars: exogenous administration, rats and mice.

No end group written: not given here.

For “Ucn1: small peptide (~38 aa), Urocortin 1 (DNPSLSIDLTFHLLRTLLELARTQSQRERAEQNRIIFDSV; ends and bridges not checked; also: 5FAM label, position not given here (in delivery test); UniProt P55089 83-122, looked up)”, the colitis-induced inflammation entry is given as “reduces colitis-induced inflammation”.
